These results are taken from patent US10577382B2, “Fused heterocyclic compound” (TAKEDA PHARMACEUTICAL COMPANY LIMITED, priority 2016, dated 2020).

The subject of this assay is tumor derived from a myelogenous leukemia patient having a mutation in the SF3B1 gene. Kind of assay: Antitumor action on tumor-bearing model derived from patient with acute myeloid leukemia having SF3B1 gene mutation. Format: in vivo. Conditions: 50 mg/kg orally twice a day on 2 days per week for 2 weeks; NOG female mice; tumor volume. As for the experimental part: A tumor derived from a myelogenous leukemia patient having a mutation in the SF3B1 gene was subcutaneously transplanted into mice to establish a clinical tumor model capable of undergoing in vivo passage. A fragment of the tumor was subcutaneously transplanted into a six-week-old NOG female mice (CLEA Japan, Inc.) with a trocar, the tumor diameter of the developed tumor was measured 52 days after the transplantation, and the tumor volume was calculated in accordance with the following expression. Tumor volume=long diameter×short diameter×short diameter×(½)
Individuals with a tumor developed to a tumor volume of about 200 mm^3 were selected, and six mice per group were used for the experiment. A 0.5% methylcellulose solution (Wako Pure Chemical Industries, Ltd.) suspension of the test compound was orally administered at a dose of 50 mg/kg (10 mL/kg) twice a day on 2 days per week for 2 weeks. The tumor volume was chronologically measured on the day before the start of administration and every 3 to 4 days, the tumor diameter was finally measured on the day after completion of administration for 14 days, and the tumor volume was calculated.
The tumor growth in the test compound administration group with respect to the control administration group was calculated as a T/C value in accordance with the following expression. […]

For `COc1ncnn2ccc(-c3cnc4nc(C)n(Cc5nnc([C@@H](C)F)o5)c4c3)c12` [Example 286, 1-((5-((1R)-1-fluoroethyl)-1,3,4-oxadiazol-2-yl)methyl)-6-(4-methoxypyrrolo[2,1-f][1,2,4]triazin-5-yl)-2-methyl-1H-imidazo[4,5-b]pyridine], the “T/C (%)” value is recorded as −30.4%.
